The record followed here is patent publication US4487716A, “N-(1-Carboxy-3-phenylpropyl)-dipeptides” (American Home Products Corporation, priority 1982, dated 1984).

In test [1] the test system is male spontaneously hypertensive rats. Description: Systolic blood pressure in male spontaneously hypertensive rats after oral administration. To be noted: groups of four rats; for Blood Pressure: systolic; for effect on systolic blood pressure (in words): oral administration. Format: in vivo. As to the method:
Blood pressures were read prior to drug administration and at 1.5, 4 and 24 hours thereafter using a Decker Caudal Plethysmograph.

The target of test [2] is T1, angiotensin converting enzyme (Oryctolagus cuniculus, UniProt P12822).
T1 construct: A crude angiotensin converting enzyme supernatant is obtained by blending 1 gm. of rabbit lung acetone powder; tissue PelFreez Biologicals; host or cells: rabbit lung acetone powder
T1 sequence (P12822 34-1310): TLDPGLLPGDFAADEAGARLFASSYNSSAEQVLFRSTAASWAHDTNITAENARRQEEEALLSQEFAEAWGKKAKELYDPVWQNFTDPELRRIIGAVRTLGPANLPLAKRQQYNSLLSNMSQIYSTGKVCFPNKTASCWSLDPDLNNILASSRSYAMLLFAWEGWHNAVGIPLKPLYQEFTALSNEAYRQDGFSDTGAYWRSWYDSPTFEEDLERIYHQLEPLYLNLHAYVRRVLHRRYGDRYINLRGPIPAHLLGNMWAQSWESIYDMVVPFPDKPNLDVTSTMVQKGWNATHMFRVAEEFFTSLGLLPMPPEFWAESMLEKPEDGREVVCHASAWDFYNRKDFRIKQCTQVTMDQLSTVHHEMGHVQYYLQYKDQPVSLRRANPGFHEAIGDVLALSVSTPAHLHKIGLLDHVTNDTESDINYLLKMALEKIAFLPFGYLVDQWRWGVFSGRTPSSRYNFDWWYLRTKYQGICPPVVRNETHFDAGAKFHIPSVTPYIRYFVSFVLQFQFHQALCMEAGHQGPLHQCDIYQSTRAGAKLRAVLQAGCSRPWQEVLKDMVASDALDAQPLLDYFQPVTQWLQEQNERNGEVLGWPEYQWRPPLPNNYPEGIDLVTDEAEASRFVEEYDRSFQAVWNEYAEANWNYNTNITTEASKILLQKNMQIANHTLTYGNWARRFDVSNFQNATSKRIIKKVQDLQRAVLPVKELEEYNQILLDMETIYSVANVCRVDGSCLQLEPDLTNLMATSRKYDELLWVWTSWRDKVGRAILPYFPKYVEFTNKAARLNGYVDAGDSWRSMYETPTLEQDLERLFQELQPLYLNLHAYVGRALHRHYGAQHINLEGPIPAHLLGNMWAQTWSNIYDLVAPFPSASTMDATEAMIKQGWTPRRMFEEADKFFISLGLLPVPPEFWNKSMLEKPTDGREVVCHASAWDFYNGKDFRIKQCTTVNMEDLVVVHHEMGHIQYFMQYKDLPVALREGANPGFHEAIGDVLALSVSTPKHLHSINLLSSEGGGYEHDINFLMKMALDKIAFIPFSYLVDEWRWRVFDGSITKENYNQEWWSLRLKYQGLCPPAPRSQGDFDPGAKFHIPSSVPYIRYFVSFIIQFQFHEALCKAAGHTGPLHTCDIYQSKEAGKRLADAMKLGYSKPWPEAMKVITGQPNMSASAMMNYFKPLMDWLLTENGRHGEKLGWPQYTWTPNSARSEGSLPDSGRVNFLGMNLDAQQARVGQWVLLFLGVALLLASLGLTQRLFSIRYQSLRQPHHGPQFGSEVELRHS
Description: Inhibition of hippuryl-L-histidyl-L-leucine hydrolysis by angiotensin converting enzyme. To be noted: rabbit lung ACE, substrate HHL 5 mM, 37° C., 30 min. Format: biochemical. As to the method:
The activity of the compounds of this invention was established by incubation of hippuryl-L-histidyl-L-leucine at 37° C. with angiotensin converting enzyme by the following procedure:
A crude angiotensin converting enzyme supernatant is obtained by blending 1 gm. of rabbit lung acetone powder (PelFreez Biologicals) with 35 ml. of 50 mM (buffered) potassium phosphate, pH 8.3 and centrifuging for 45 min. at 40,000×g.
The specific angiotensin converting enzyme substrate Hippuryl-L-histidyl-L-leucine (HHL-Sigma Chem. Co.) is prepared at 5 mM in 200 mM potassium phosphate buffer containing 757 mM NaCl at pH 8.3.
Incubation for the assay of HHL hydrolysis by angiotensin converting enzyme is carried out in a 37° C. gyrorotary incubator in disposable 13×100 mm tubes. Each 0.25 ml assay mixture contains the following components at the final concentrations: potassium phosphate buffer, 100 mM; NaCl, 300 mM; HHL, 5 mM; and enzyme 0.15 ml (10 mU approx.) added last to initiate the reaction. Zero time controls have 0.25 ml of 2N HCl added before the enzyme. The timed reactions are terminated with acid at 30 min. similarly and the hippuric acid freed from substrate is extracted into 1.5 ml of ethyl acetate layer is transferred to a clean tube. […]
The hippuric acid is resuspended in 1.0 ml of water, the absorbance at […] is determined, and the amount present is calculated from a standard curve. […]

For the molecule `NCCCC[C@H](NC(CCc1ccccc1)C(=O)O)C(=O)N(CC(=O)O)c1ccccc1` (mixture of isomers) [Example 2, N^α -(DL-1-carboxy-3-phenylpropyl)-L-lysyl-N-phenylglycine], the “Blood Pressure” value is given as 196 mmHg in test [1] (150 mg/kg PO, 1.5 hours) and 194 mmHg in test [1] (150 mg/kg PO, 4 hours). Besides, the “effect on systolic blood pressure (in words)” value in test [1] is listed as “reduce systolic blood pressure”. Besides, in test [2], the 50% inhibitory concentration (IC50) was 146 nM.
“N^α -(DL-1-carboxy-3-phenylpropyl)-L-lysyl-N-p-methoxyphenylglycine [Example 3]”: the “Blood Pressure” value came out at 183 mmHg in test [1] (50 mg/kg PO, 1.5 hours); 181 mmHg in test [1] (50 mg/kg PO, 4 hours); 204 mmHg in test [1] (50 mg/kg PO, 24 hours). In test [1], the “effect on systolic blood pressure (in words)” value is recorded as “reduce systolic blood pressure”.
